Earlier results as cited in patent publication EP3854219A1, “EDIBLE AND WATER-SOLUBLE CHEWABLE TOY FOR ANIMALS, IN PARTICULAR FOR THE RELEASE OF ACTIVE INGREDIENTS” (New Project S.r.l., priority 2020, dated 2021).

Tested on: rats
Settings: oral ingestion

CO [methanol]
LD50: 5628 mg/kg
